Peptide text beside a SMILES is read from it. * marks the point of attachment. Cbz = O=C(OCc1ccccc1)*; CH2F = FC*
Tests used:
[1] = system: human melanoma grafts; assay: Tumor growth in tumor-bearing mice treated with temozolomide; type: in vivo; settings: daily 60 mg/kg orally
[2] = system: SK-Mel-5 cells; assay: Nuclear apoptosis (DNA fragmentation) by flow cytometry; type: cell-based, human; settings: 50 μM, 48 h, p<0.05
Description: FIGS. 4A-4H. […] Paraffin-embedded tumor tissues were subjected to H&E staining (FIGS. 4C & D) and DeadEnd Fluorometric TUNEL-assay for detection of apoptosis (FIGS. 4E & F). The TUNEL-positive cells are visualized in green fluorescence in a red (Propidium Iodide) background by fluorescence microscopy. […] After 36 h incubation, cells were collected and fixed with 1% formaldehyde and 70% ice-cold ethanol. The apoptotic cells were examined using TUNEL-assay and analyzed by flow cytometry through measuring fluorescein-12-dUTP at 520 nm. The apoptotic rate is indicated in each box. Data shown are represented one of three independent experiments. […] Cells were fixed and stained with Propidium iodide. Cell fluorescence was measured by flow cytometry and the data were analyzed using DNA content histogram deconvolution software (Multicycle from Phoenix Flow Systems). The percentage of apoptotic cells with fragmented DNA (PI intensity sub-G0/G1) is indicated at each time point. The experiments were repeated twice, in duplicates for each point (total n=4).

[3] = system: SK-Mel-5 cells; assay: Western blot / confocal analysis of apoptotic proteins in subcellular fractions; type: cell-based, human; settings: 50 μM with 10 μM BMS-345541, Western blot and confocal microscopy
Description: Subcellular mitochondria and cytoplasm were prepared and subjected to Western blot analysis for Bcl-2 and Bax. […] After exposure, mitochondria were isolated and incubated with 80 μM 3,3′dihexyloxacarbocyanine iodide (DiOC6) at 37° C. for 15 min. Δψm was determined by FACS analysis using 484/530 nm filters within 10 min while gating the forward and sideward scatters on intact mitochondria (FIG. 5C). […] Subcellular extracts were prepared and subjected to Western blot analysis for cytochrome-C and AIF. […] The supernatant was assessed for cytochrome-c release. 200 μM Ca^2+ was used as a positive control.
The cellular caspase-3 activity in samples was detected as described in Materials and Methods. […] Cells were fixed and stained with propidium iodide staining as described in FIG. 4H. The percentage of cell death was measured with flow cytometry. […] Cytosol was extracted and subjected to Western blot analysis for AIF, cytochrome-c (cyto-C) and actin. Actin was used as a loading control protein. […] Ref-1 was used as a nuclear marker protein. All data shown here were from three independent experiments. […] SK-Mel-5 cells were exposed to 10 μM BMS and/or pan-caspase inhibitor (Z-VAD-fmk, 50 μM).
Proteins from cell extracts were separated by 12% SDS-PAGE and electrophoretically transferred to nitrocellulose membranes. Nonspecific binding was blocked with 5% milk in TBST buffer (4 mM Tris base, 100 mM NaCl, pH 7.5, 0.05% Tween), incubated with the indicated primary antibodies with a dilution of 1:1000 at room temperature for 2 h or 4° C. for overnight and then with horseradish peroxidase-conjugated secondary antibody for 1 h. Blots were visualized by enhanced chemiluminescence assay.
The Mitochondria Isolation Kit (Pierce, Rockford, Ill.) was used for isolation of mitochondria from cultured melanoma cells according to the manufacture's instruction for the Reagent-based method. Briefly, cells (2×10^7) were collected, washed with PBS buffer and resuspended in 0.8 ml of Reagent A on ice for 2 min. 10 μl of Reagent B was added and samples were kept on ice, with vortexing very minute for 5 min. After addition of 0.8 ml of Reagent C, the mixture was centrifuged at 700×g for 10 min to remove the cell debris and nuclei. The supernatant was then centrifuged at 3,000×g for 15 min. The pellet (mitochondria) was washed with Reagent C. The purity of mitochondria was determined by Western blotting with β-actin, where β-actin negative preparation were fully to be pure. The supernatant (cytosolic fraction) was further cleared by centrifugation at 12,000×g for 15 min.
Cells were incubated with the anti-AIF polyclonal antibody for 2 h. Cells were washed twice and incubated with the secondary antibody conjugated with FITC for 1 h.

[4] = system: caspase-3; assay: Caspase-3 activity assay (Ac-DEVD-pNA) in cytosol extracts; type: cell-based, human; settings: 50 μM pan-caspase inhibitor, 10 μM BMS-345541

Row | Compound | tumor growth inhibition [1] [%] | cells protected from nuclear apoptosis induced by 10 μM BMS-345541 [2] [%] | influence on AIF translocation to nucleus and nuclear condensation [3] | block of BMS-345541 induction of caspase-3 activity [4] [%]
1 | Cn1nnc2c(C(N)=O)ncn2c1=O [temozolomide] | 81 | – | – | –
2 | COC(=O)C[C@H](NC(=O)[C@H](C)NC(=O)[C@@H](NC(=O)OCc1ccccc1)C(C)C)C(=O)CF [Z-VAD-fmk, reference compound] (Cbz-Val-Ala-Asp(OMe)-CH2F) | – | 11 | failed to influence | 87.2
